Results: US6406908B1, “Vanilloid receptor” (Novartis AG, priority 1999, dated 2002)
Read-outs that look alike come from different tables or passages of the source. One block for each compound: values may come before it.

Columns and labels:
[1] = target: T1, rVR1 (Rattus norvegicus, UniProt O35433); assay: Aequorin luminescence assay, rVR1 in CHO cells; format: cell-based
T1 construct: expressed in transfected cells
Experimental: (§1) All the plates for use in a day are set up at the same time. The first plate is used in the assay after 2.5 h incubation with coelenterazine h. Subsequent plates are used at about 10 min intervals. […] At the start of the assay, the medium containing coelenterazine h is removed and replaced with 100 μl of HBSS buffered to pH 7.4 with 10 mM HEPES containing test compounds where appropriate. Cells are incubated for at least 10 min at RT. They are then placed in the measuring chamber of a luminometer (Wallac Microbeta Jet). Agonist is injected in a volume of 20 μl HBSS and the luminescence signal is collected for 20 sec.

[2] = target: T2, hVR1 (Homo sapiens, UniProt Q8NER1); assay: Aequorin luminescence assay, hVR1 in CHO cells; format: cell-based
T2 construct: expressed in transfected cells
Experimental: as §1

[3] = test system: Rat DRG neurones; assay: 45Ca calcium uptake assay in primary cultures of DRG neurones; format: cell-based
Experimental: Primary cultures of adult DRG neurones are prepared according to standard protocols [Wood et al., J. Neuroscience 8:3208-3220 (1988)]. Cells are plated at a density of 2000 per well on 96 well view plates pre-coated with poly-ornithine and laminin and cultured in Hams F14 supplemented with 100 ng/ml NGF for four days. On the day of the assay, the cells are washed eight times in a Denley cell washer with calcium/magnesium free HBSS plus 10 mM HEPES, pH7.4. After washing the wells contain approximately 75 μl of buffer. […] For negative control, capsaicin is omitted. Samples are incubated at RT for 10 min, then washed four times with HBSS/10 mM HEPES pH 7.4. The remaining buffer is removed from the wells and replaced with 25 μl of 0.1% SDS. After about 10 min 200 μl of Microscint 40 scintillant is added and samples are counted on a Packard Topcount.

[4] = target: T2, hVR1; assay: Fluorometric Fluo-3 assay using the FLIPR, hVR1 in CHO cells; format: cell-based
Experimental: Cells resulting from Examples A1 or A2 are plated at a density of 50,000 cells/well in Costar Viewplates. The cells are incubated at 37° C. in a humidified atmosphere (5% CO2/95% air) for 24 h. Medium is removed by flicking the plates and replaced with 100 μl HBSS containing 2 μM Fluo-3, AM (Molecular Probes) in the presence of 2.5 mM probenicid (Sigma) and 0.02% pluronic acid (Molecular Probes). The cells are incubated at 37° C. in a humidified atmosphere (5% CO2/95% air) for 1 h. Plates are flicked to remove excess of Fluo-3, AM, washed twice with HBSS and refilled with 100 μl of HBSS containing screening compounds. Incubation in the presence of screening compounds lasts between 10 and 20 min. Plates are then placed in the cell plate stage of the FLIPR (Molecular Devices, Sunnyvale, Calif., USA). A baseline consisting in 5 measurements of 0.4 sec each (laser: excitation 488 nm at 0.6 W, CCD camera opening of 0.4 sec) is recorded.

[5] = target: T3, human vanilloid receptor (Homo sapiens, UniProt Q8NER1); assay: Activation of human vanilloid receptor expressed in mammalian cells; format: cell-based
T3 construct: expressed in transfected cells

[6] = test system: Rat DRG neurones; conditions: inhibition of capsaicin response; from Wood et al (1988); read-out: IC50 (nM) (Ca uptake assay) Rat DRG neurones; cited from earlier work
[7] = inhibition of capsaicin response, capsaicin 1 μM

T2 sequence (Q8NER1 whole entry): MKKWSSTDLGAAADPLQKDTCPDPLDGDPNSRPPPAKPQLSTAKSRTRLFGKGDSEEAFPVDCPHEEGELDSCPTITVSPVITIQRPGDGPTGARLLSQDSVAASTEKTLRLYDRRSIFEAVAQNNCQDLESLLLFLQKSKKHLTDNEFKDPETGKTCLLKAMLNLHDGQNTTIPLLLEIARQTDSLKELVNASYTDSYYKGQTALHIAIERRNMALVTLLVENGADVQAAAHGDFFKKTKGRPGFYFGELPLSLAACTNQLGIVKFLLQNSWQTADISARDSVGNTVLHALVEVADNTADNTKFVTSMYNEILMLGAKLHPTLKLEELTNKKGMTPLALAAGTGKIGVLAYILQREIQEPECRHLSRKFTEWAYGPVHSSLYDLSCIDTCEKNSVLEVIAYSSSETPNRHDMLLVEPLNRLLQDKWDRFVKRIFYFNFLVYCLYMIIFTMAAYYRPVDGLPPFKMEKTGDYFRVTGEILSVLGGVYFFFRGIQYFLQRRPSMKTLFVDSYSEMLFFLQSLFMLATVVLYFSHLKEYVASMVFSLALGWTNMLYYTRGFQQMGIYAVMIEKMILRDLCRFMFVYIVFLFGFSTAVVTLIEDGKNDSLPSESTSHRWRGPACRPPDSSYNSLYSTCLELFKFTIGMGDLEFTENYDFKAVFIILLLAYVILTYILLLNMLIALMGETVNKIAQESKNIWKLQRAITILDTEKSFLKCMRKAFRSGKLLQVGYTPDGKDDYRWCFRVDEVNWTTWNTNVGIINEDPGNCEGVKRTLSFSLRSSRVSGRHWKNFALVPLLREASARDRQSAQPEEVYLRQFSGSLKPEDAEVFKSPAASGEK
T3 sequence (Q8NER1 whole entry): as above
T1 sequence (O35433 whole entry): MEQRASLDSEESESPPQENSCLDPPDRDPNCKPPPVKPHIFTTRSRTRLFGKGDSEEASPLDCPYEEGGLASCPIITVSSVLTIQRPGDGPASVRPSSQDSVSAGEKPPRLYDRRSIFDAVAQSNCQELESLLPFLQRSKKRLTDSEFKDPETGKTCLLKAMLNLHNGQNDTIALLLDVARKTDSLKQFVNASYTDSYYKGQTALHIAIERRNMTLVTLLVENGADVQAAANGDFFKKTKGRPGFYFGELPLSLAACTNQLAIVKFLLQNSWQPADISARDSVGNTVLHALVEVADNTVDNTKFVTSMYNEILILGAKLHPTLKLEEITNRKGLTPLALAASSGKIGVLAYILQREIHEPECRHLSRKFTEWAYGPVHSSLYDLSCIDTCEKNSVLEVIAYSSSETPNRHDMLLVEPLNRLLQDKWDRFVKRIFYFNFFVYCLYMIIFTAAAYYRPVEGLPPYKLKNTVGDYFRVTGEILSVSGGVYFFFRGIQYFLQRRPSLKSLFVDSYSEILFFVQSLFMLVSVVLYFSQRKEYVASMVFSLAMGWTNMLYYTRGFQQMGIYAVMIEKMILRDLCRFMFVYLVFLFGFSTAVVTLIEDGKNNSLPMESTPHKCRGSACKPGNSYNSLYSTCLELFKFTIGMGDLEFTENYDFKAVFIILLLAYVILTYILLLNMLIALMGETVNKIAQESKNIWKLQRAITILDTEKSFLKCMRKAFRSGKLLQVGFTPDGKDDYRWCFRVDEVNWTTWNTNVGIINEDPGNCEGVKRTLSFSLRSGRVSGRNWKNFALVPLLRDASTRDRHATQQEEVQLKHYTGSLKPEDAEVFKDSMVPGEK

IC50 [1]: 320 ± 110 nM
IC50 [2]: 120 ± 12 nM
IC50 [3]: 800 ± 40 nM
IC50 [4]: 130 ± 32 nM
Block of activation by capsaicin, temperatures greater than 42° C. and pH less than 5.5 [5]: blocked substantially or completely
Compound: Oc1cc2c(cc1O)CN(C(=S)NCCc1ccc(Cl)cc1)CCC2 [Cz, Capsazepine]

EC50 ([3]; 10 min): 170 ± 19 nM
Activation of the human vanilloid receptor [5]: activated by capsaicin
Compound: COc1cc(CNC(=O)CCCC/C=C/C(C)C)ccc1O [Capsaicin]

IC50 [1, 7]: 18 ± 8.3 nM
IC50 [2, 7]: 220 ± 32 nM
Blocking of capsaicin responses ([2]; measured as in Example B1, stated generally for the assays): effective blocker of capsaicin responses
Compound: N.N.N.N.N.N.N.N.N.N.N.N.N.N.[Cl-].[Cl-].[Cl-].[Cl-].[Cl-].[Cl-].[O-2].[O-2].[Ru+3].[Ru+3].[Ru+4] [Rr, Ruthenium red]
IC50 [6]: 50 nM
